Data on 99 compounds can be found in ChEMBL document CHEMBL3507680, “University of Dundee, Gates Library screen for HepG2 cell viability”.

This data set can be described thus: Human HepG2 cell viability assay in 384 well format. The data set is classed as toxicity, cell-based. Further details: dose 125 nL, time 70.5 hour; concentration not given beside the values. The conditions noted are these: HepG2 cells, read-out: Inhibition.
As for `CCN(CCO)C[C@@H]1CN(c2cc(C(F)(F)F)cc(C)n2)C[C@@H]1CO`, the cytotoxicity at 70.5 h was -8.43%.
In the case of `Cc1cc(-c2cnc(N3CCC(C(N)=O)CC3)nc2C(C)C)on1`, the cytotoxicity at 70.5 h turned out to be 9.37%.
In the case of `Cc1cnn(C2CCCN(C(=O)c3cc(C)sc3C)C2)c1` (centres undefined), the cytotoxicity at 70.5 h was -2.62%.
Under `O[C@H]1CN(Cc2ccnc(N3CCCC3)n2)CC[C@@]12CCCO2` stands -9.21%; under `CCn1ccc2ccnc(CC3CN(C(=O)c4cnco4)C3)c21`, -6.85%.
With `Cc1nc(C)n(CC2CCCN2Cc2cn(-c3ccccc3)nn2)n1` (centres undefined) the figure was 2.44%; with `Clc1ccc2oc(C3CCN(Cc4nc(C5CC5)no4)CC3)nc2c1`, -16.3%.
With `CNC(=O)[C@@H]1CN(Cc2ccccc2)C[C@H]1C(=O)c1ccc(F)cc1` the figure was -1.84%; with `CC[C@H]1CN2CC[C@H]1C[C@@H]2CNC(=O)Nc1cccc(C#N)c1`, 13.7%; with `NC(=O)CCNC(=O)C1(N2CCCCC2)Cc2ccccc2C1`, 9.16%.
As to `CCc1noc(C(C)N2CCN(Cc3noc(C4CC4)n3)CC2)n1` (centres undefined), the cytotoxicity at 70.5 h is -8.62%.
Consider `COCCNC(=O)C(C)n1nc(-c2ccco2)cc(N)c1=O` (centres undefined), for which the cytotoxicity at 70.5 h is 23.7%.
`CC(C)CC(=O)N1CCC2(CC1)NC(=O)[C@H]1CN(C(=O)N(C)C)C[C@H]12`: the cytotoxicity at 70.5 h is -7.99%.
Take `CN1CCC(CN(C)S(=O)(=O)CC2CCCCC2)CC1`: the cytotoxicity at 70.5 h came out at 11.1%.
Under `Nc1cc2c(nn1)CCN(C(=O)c1cccnc1Oc1ccccc1)C2` stands -8.86%; under `Cc1noc(NCc2cn(C)nc2-c2cccnc2)n1`, -12.1%; under `O=C(c1onc2ccccc12)N1CCC2(CCCNC2)C1` (centres undefined), -16.6%.
For the compound `C[C@H]1C[C@H]2CN(C(=O)CCc3ccccc3)CC[C@H]2O1`, the cytotoxicity at 70.5 h was -11.5%.
Turning to `CN(C)c1ccc(C(=O)N2CCCC2c2ccc(Cl)cc2)cc1` (centres undefined), the cytotoxicity at 70.5 h is -4.22%.
With `COc1ccccc1OCCNC(=O)CN1CCN(C)CC1C` (centres undefined) the figure was -2.58%; with `Cn1cc(CCCNC(=O)NC2CCN(c3ccccc3)C2=O)cn1` (centres undefined), -5.19%.
Under `CCc1ccc(NC(=O)N2C[C@H]3C[C@H](C(=O)NC(C)C)[C@@H](C2)O3)cc1` stands -7.8%; under `CCC[C@@H]1CN(Cc2ccc(C(F)(F)F)nc2)C[C@H]1NS(C)(=O)=O`, 11.1%.
With `Cc1ccccc1OCC(O)CN1CCC(c2ccn[nH]2)CC1` (centres undefined) the figure was -4.42%; with `CN(Cc1ccc(Br)o1)C(=O)Nc1cccnc1`, -5.06%.
With `Cc1ccc(OCC(O)COC2CCOCC2)c(Br)c1` (centres undefined), the cytotoxicity at 70.5 h is -10.6%.
Under `O=C1CCCN1c1cccc(CNCc2cc(F)ccc2F)c1` stands -6.99%; under `Cc1nn(Cn2ccc(C(=O)N3CCC(C)CC3)n2)c(C)c1Cl`, -13.2%; under `O=C(c1cnc(-c2cccs2)s1)N1CCCN2CCCC2C1` (centres undefined), -5.78%.
With `O=C(c1csc(C2CC2)n1)N1CCCC1Cn1cccn1` (centres undefined), the cytotoxicity at 70.5 h is 0.252%.
`Cn1cnnc1SC1CCc2ccccc2NC1=O` (centres undefined): the cytotoxicity at 70.5 h is -20.5%.
Regarding `Cc1ccsc1C(=O)N1CCC2(CC(C(=O)N(C)C(C)C)=NO2)C1` (centres undefined), the cytotoxicity at 70.5 h is -2.65%.
`Cn1ncc2c1CCCC2NCc1ccc(Cl)s1` (centres undefined): the cytotoxicity at 70.5 h came to 4.18%.
`COCC[C@]1(O)CCN(C(=O)C2CCN(C3CCCC3)CC2)C[C@H]1C`: the cytotoxicity at 70.5 h was -5.71%.
Regarding `Cn1nc2c(cc1=O)CN(Cc1nc(-c3cccs3)no1)CC2`, the cytotoxicity at 70.5 h was -14.3%.
Consider `COCC1CN(C(=O)N2CCCC2)Cc2cnn(CC3CCCC3)c21` (centres undefined), for which the cytotoxicity at 70.5 h was -1.96%.
Turning to `CCC(=O)N1CCCCC1c1nc(O)c2c(n1)CN(S(C)(=O)=O)CC2` (centres undefined), the cytotoxicity at 70.5 h is 12.1%.
For the compound `CC(=O)c1ccc(NC(=O)C(C)Cn2cc(Br)cn2)cc1` (centres undefined), the cytotoxicity at 70.5 h is -5.47%.
On to `O=C(N1CCCC1)N1Cc2nccn2CC(Cn2ncccc2=O)C1` (centres undefined), for which the cytotoxicity at 70.5 h is -0.168%.
As to `COc1ccc2c(c1)C(=O)NC1(CC2)CCN(Cc2ccccn2)C1` (centres undefined), the cytotoxicity at 70.5 h is -1%.
For `O=c1c2sccc2nc2n1CCN(Cc1ccsc1)CC2`, the cytotoxicity at 70.5 h came to 17.3%.
With `CN1CCc2nc(C3CCN(C(=O)CCC4CCCC4)CC3)ncc2C1` the figure was -16.6%.
Take `CN1CCOC[C@H]1c1nc(-c2ccccc2)c[nH]1`: the cytotoxicity at 70.5 h is -9.46%.
For `OCC1CCCN1c1cc(NCc2cccc3cccnc23)ncn1` (centres undefined), the cytotoxicity at 70.5 h is 3.27%.
Regarding `CCCNC(=O)CN1CCC(NCc2c(C)nn(C)c2OC)CC1`, the cytotoxicity at 70.5 h was -0.725%.
With `COc1cc(-c2cnnc(NCCSC)n2)cc(OC)c1OC` the figure was -5.18%; with `N#CC1C(=O)Nc2c(cnn2C2CCCC2)C12CCCC2` (centres undefined), -2.82%; with `CN(C)CC(=O)N1CCCCC1c1nc(N)ncc1-c1ccccc1` (centres undefined), 5.62%.
On to `CN1CCN(C(=O)CCn2nnc3ccccc32)CC(C(N)=O)C1` (centres undefined), for which the cytotoxicity at 70.5 h was -1.08%.
As for `c1csc(N2[C@H](Cn3cncn3)C[C@@H]3CNCC[C@@H]32)n1`, the cytotoxicity at 70.5 h is 10.2%.
Under `Cn1ccc(C(=O)NC2CCC23CCN(C(=O)c2ccccn2)CC3)c1` (centres undefined) stands -4.01%; under `CN(CCc1ccccn1)S(=O)(=O)N1CCCC1c1ccco1` (centres undefined), -10.8%.
With `CCC(C(=O)NC1CCCC1)n1ccc2ncccc2c1=O` (centres undefined) the figure was -16.4%; with `O=C(c1cnc2ccccc2c1)N1CCCC(O)(CN2CCCC2)C1` (centres undefined), -0.693%; with `CC(=O)N1CCc2nnc(C3CCCCN3CC3CCCCC3)n2CC1` (centres undefined), 12.6%.
Under `Nc1nc2c(c(NCC(c3cccnc3)N3CCOCC3)n1)CCNC2` (centres undefined) stands -10.5%.
On to `Cc1nn(C)c(N(C)C)c1CNCc1ccccc1CO`, for which the cytotoxicity at 70.5 h is -0.166%.
On to `COCCCN1CC2(CCCN(c3ncc4nc[nH]c4n3)C2)CCC1=O` (centres undefined), for which the cytotoxicity at 70.5 h is -11.3%.
On to `Cc1ncsc1-c1nnc(C2CCN(Cc3ccccc3F)CC2)o1`, for which the cytotoxicity at 70.5 h is -0.587%.
In the case of `O=C(Cc1ccco1)N1CCC2(CCOCC2COCC2CC2)CC1` (centres undefined), the cytotoxicity at 70.5 h is -4.14%.
`Cc1cccc2nc(C(=O)N3CCCC[C@]4(C)NC(=O)CC[C@H]34)cn12`: the cytotoxicity at 70.5 h is -0.96%.
Under `Cc1nc(-c2ccsc2)ccc1C(=O)O` stands -4.19%; under `Cc1ccc(NC2CCN(C(=O)c3ccncc3)CC2)nn1`, -12.4%.
With `CC(C)(C)c1ncc(C(=O)NCCNC(=O)c2ccc(O)cc2)s1`, the cytotoxicity at 70.5 h is -7.09%.
Regarding `N#Cc1cccnc1NCc1cccnc1N1CCC(C(N)=O)CC1`, the cytotoxicity at 70.5 h was -9.67%.
Under `Cc1ccccc1CN(C)Cc1nc2c(cnn2C)c(=O)[nH]1` stands -7.81%.
For the compound `FC(F)(F)c1nc(C2CCCNC2)no1` (centres undefined), the cytotoxicity at 70.5 h is -0.742%.
On to `COc1cc2[nH]c(=O)c(CN3CCC[C@@H]3C(N)=O)cc2c(OC)c1OC`, for which the cytotoxicity at 70.5 h stood at 23.4%.
Regarding `Cc1nc(CN(C)C2CCN(Cc3nc(C4CC4)no3)C2)no1` (centres undefined), the cytotoxicity at 70.5 h was -1.35%.
With `COCC(=O)N1CCC(c2cc(N(C)C)cc(C)n2)CC1` the figure was 25.5%; with `CC1CCN(S(=O)(=O)N2CCCC(c3cccc(C(=O)O)c3)C2)CC1` (centres undefined), -12.1%.
With `CCCc1cc(C(=O)N2Cc3cnc(C(C)(C)C)nc3C2)ccn1` the figure was 0.0745%.
With `CCn1nc(C)c(C(C)NC(=O)c2cnc(N(C)C)nc2C)c1C` (centres undefined) the figure was 1.08%.
Consider `Cc1ccc(C(=O)N2CCC3(CC(N(C)c4ccncn4)C3)C2)cn1` (centres undefined), for which the cytotoxicity at 70.5 h was -2.36%.
With `CC(C)(C)NCc1ccc(OCc2ccc3c(c2)OCCO3)cc1` the figure was 8.79%.
For `CN(Cc1n[nH]c2c1CCCCC2)C(=O)c1cc(-c2cccn2C)n[nH]1`, the cytotoxicity at 70.5 h was -5.14%.
Turning to `CCN(C(=O)Cn1cc(NC(=O)C(C)(C)C)cn1)c1ccccc1`, the cytotoxicity at 70.5 h was -0.681%.
With `CCS(=O)(=O)N(C)CCCNCc1c(C)nn(C)c1N(C)C` the figure was -2.24%; with `N#CCCN(CC1CCOC1)S(=O)(=O)c1cccc(Cl)c1` (centres undefined), -5.98%; with `COCCN(C)C(=O)c1cc2c(s1)CCN2C(=O)C1CC1`, 2.55%.
Take `Cc1nc(N2CCCC2)nc2c1CCN(C(=O)C1CCCCC1)CC2`: the cytotoxicity at 70.5 h was -0.729%.
As for `OCCOCc1ncn2c1CN(Cc1cccs1)CCC2`, the cytotoxicity at 70.5 h was 0.851%.
Turning to `N#Cc1cccnc1OC1CCNCC1`, the cytotoxicity at 70.5 h is 37.8%.
As for `Cc1ccccc1CSc1nc(N)cc(N2CCOC(C(N)=O)C2)n1` (centres undefined), the cytotoxicity at 70.5 h stood at 1.56%.
In the case of `CN(C)C(=O)NC1COC2(CCN(Cc3ccc(N(C)C)cc3)CC2)C1` (centres undefined), the cytotoxicity at 70.5 h was -2.99%.
Regarding `CNc1ccnc(NCCSc2nccn2C)n1`, the cytotoxicity at 70.5 h is -1.64%.
For `Cc1cc(C(=O)Nc2ccc(N3CCCC3)cn2)ccc1-n1cncn1`, the cytotoxicity at 70.5 h is -1.17%.
With `CCN1CCCC1CNCc1cc2cc(C)c(C)cc2[nH]c1=O` (centres undefined) the figure was -2.24%.
Under `NC(=O)c1c(NC(=O)CCCC(=O)O)sc2c1CCc1ccccc1-2` stands 10.4%; under `CCOCC(=O)NC(C)c1cc(C)ccc1C` (centres undefined), 12.7%; under `COc1cc(NCc2ccccc2-n2cncn2)nc(N)n1`, -6.05%.
Regarding `CC(=O)NCC1CCN(C(=O)c2c[nH]c3cc(Cl)ccc23)CC1`, the cytotoxicity at 70.5 h was -10.5%.
Under `CCOC(=O)CNC(=O)N1CCCC(CNC(=O)c2ccco2)C1` (centres undefined) stands -1.85%; under `CCC[C@H]1CN(c2nccc(NCC)n2)C[C@@H]1NS(=O)(=O)N(C)C`, -7.09%.
For the compound `Cc1ccc(F)cc1S(=O)(=O)NCc1cccnc1N(C)C`, the cytotoxicity at 70.5 h is -10.3%.
With `O=C(O)Cc1nc2nccc(-c3ccc(F)cc3)n2n1` the figure was 17.4%.
Turning to `CC(C)Cc1nc(-c2ccnc(N3CCNCC3)n2)no1`, the cytotoxicity at 70.5 h is -7.21%.
With `CC(C)n1c(=O)nc2n1C(=O)N(c1ccc(Br)cc1)C2`, the cytotoxicity at 70.5 h is -16.1%.
Consider `CN1CCCN(C[C@H]2C[C@H](CO)CN(Cc3cccnc3N)C2)CC1`, for which the cytotoxicity at 70.5 h worked out at 22.4%.
